Assay results taken from PubChem BioAssay (NCI).
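Interpolation was linear, between the two tested concentrations surrounding the appropriate level; five concentrations were tested over 48 hours in 96-well plates. The concentration for 50% growth inhibition is given as GI50. TGI denotes the concentration required for complete inhibition of growth.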

How the values were obtained:
Assay in all cases: NCI-60 cell line screen, 48 h
CCRF-CEM leukemia = system: CCRF-CEM leukemia
COLO 205 colon = system: COLO 205 colon
LOX IMVI melanoma = system: LOX IMVI melanoma
MALME-3M melanoma = system: MALME-3M melanoma
MDA-MB-231 breast = system: MDA-MB-231 breast
NCI-H522 lung = system: NCI-H522 lung
A498 renal = system: A498 renal
A549 NSCLC = system: A549 NSCLC
RXF 393 renal = system: RXF 393 renal
SR leukemia = system: SR leukemia

Row | SMILES | TGI (CCRF-CEM leukemia) [µM] | TGI (COLO 205 colon) [µM] | TGI (LOX IMVI melanoma) [µM] | TGI (MALME-3M melanoma) [µM] | TGI (MDA-MB-231 breast) [µM] | TGI (NCI-H522 lung) [µM] | TGI (A498 renal) [µM] | TGI (A549 NSCLC) [µM] | TGI (RXF 393 renal) [µM] | TGI (SR leukemia) [µM] | GI50 (A498 renal) [µM] | GI50 (A549 NSCLC) [µM] | GI50 (CCRF-CEM leukemia) [µM] | GI50 (COLO 205 colon) [µM] | GI50 (LOX IMVI melanoma) [µM] | GI50 (MALME-3M melanoma) [µM] | GI50 (MDA-MB-231 breast) [µM] | GI50 (NCI-H522 lung) [µM] | GI50 (RXF 393 renal) [µM]
1 | COc1c(O)c(OC)c(C(=O)/C=C/c2ccccc2)c(O)c1OC | > 100 | > 100 | 87.2 | > 100 | 72 | 31.9 | – | – | – | – | – | – | – | – | – | – | – | – | –
2 | Cc1cc(N(CCC#N)S(=O)(=O)c2ccccc2)ccc1C=O | > 100 | > 100 | > 100 | > 100 | – | > 100 | > 100 | > 100 | > 100 | > 100 | – | – | – | – | – | – | – | – | –
3 | CC1CCC(O)C(C(O)CC2CC(=O)N(C)C(=O)C2)C1 (configuration not stated) | > 100 | > 100 | > 100 | > 100 | – | > 100 | > 100 | > 100 | > 100 | > 100 | – | – | – | – | – | – | – | – | –
4 | O=c1c2ccccc2nc(-c2ccccc2)n1NCC1(O)OCC(O)C(O)C1O (configuration not stated) | > 100 | > 100 | – | > 100 | – | > 100 | > 100 | > 100 | – | – | – | – | – | – | – | – | – | – | –
5 | N#Cc1c2c(c(N=[N+]=[N-])n3c1nc1ccccc13)CCCC2 | – | 13.1 | 3.52 | 5.96 | – | – | 6.1 | 17 | 3.19 | > 100 | – | – | – | – | – | – | – | – | –
6 | CN1CCCC1c1cccnc1.O=C(O)c1ccccc1O.O=C([O-])c1ccccc1[OH2+].O=C([O-])c1ccccc1[OH2+].O=C([O-])c1ccccc1[OH2+].[Mn+2] (configuration not stated) | > 100 | > 100 | > 100 | 52.2 | > 100 | 27.7 | > 100 | > 100 | > 100 | – | > 100 | > 100 | 23.3 | > 100 | > 100 | 17.8 | > 100 | 12.1 | > 100
7 | CC(C)OP(=O)(OC(C)C)C(N(C)C)P(=O)(OC(C)C)OC(C)C.[Cl][Sn]([Cl])([Cl])[c]1ccccc1 | 18.6 | 12.5 | 6.97 | 8.2 | – | 9.78 | 89.8 | 5.28 | 11.4 | – | 14.2 | 2.21 | 2.07 | 2.1 | 2.26 | 2.82 | – | 3.02 | 2.81
8 | CC1=CC2=C(C)C3(CC3)[C@@](C)(O)C(=O)C2=C1 | > 1 | 0.584 | 0.594 | 0.424 | – | 0.296 | 0.505 | > 0.975 | 0.246 | > 1 | – | – | – | – | – | – | – | – | –
9 | CC(=O)NC1C(OCc2ccccc2)OC(COC(=O)CCCCCCCCCCNC(=O)c2cccc3c(=O)c4ccccc4[nH]c23)C(O)C1OC(C)C(=O)NC(C)C(=O)NC(CCC(N)=O)C(N)=O (configuration not stated) | – | > 100 | > 100 | – | – | > 100 | > 100 | > 100 | – | > 100 | – | – | – | – | – | – | – | – | –
10 | c1ccc(SCCCC(Sc2ccccc2)Sc2ccccc2)cc1 | > 100 | > 100 | > 100 | – | – | – | > 100 | > 100 | > 100 | > 100 | – | – | – | – | – | – | – | – | –
11 | Cc1ccc(C2=Nc3c(N)ncnc3NC(c3cccc(Nc4ccnc5cc(C(F)(F)F)ccc45)c3)C2)cc1 (configuration not stated) | > 100 | 7.03 | 6.13 | 23.1 | 8.44 | 7.51 | 6.81 | 13.2 | 3.55 | – | 1.76 | 3.63 | 3.85 | 2.64 | 2.34 | 3 | 2.59 | 2.27 | 1.69
12 | CC(C)c1ccc(/C=C(\NC(=O)c2ccccc2)c2nc3ccccc3[nH]2)cc1 | > 100 | > 100 | > 100 | > 100 | – | 89.5 | > 100 | 82.5 | > 100 | – | – | – | – | – | – | – | – | – | –
13 | c1ccc2c(c1)CCCc1cc3ccccc3nc1-2 | > 100 | > 100 | – | > 100 | – | > 100 | > 100 | > 100 | – | – | – | – | – | – | – | – | – | – | –
14 | COC(=O)/C(=N\NC(=O)c1ccccc1O)C(C#N)c1ccc(Cl)cc1 (configuration not stated) | > 100 | > 100 | – | > 100 | – | 72.3 | > 100 | > 100 | 79.8 | > 100 | – | – | – | – | – | – | – | – | –
15 | COc1ccc([Se]c2ccc(OC)cc2OC)c(OC)c1 | > 100 | 27.1 | > 100 | > 100 | – | 38.2 | 70.3 | > 100 | 59.5 | 45.7 | – | – | – | – | – | – | – | – | –
16 | CCN(CC)CCOc1ccc(/C=C2\C[C@H]3[C@@H]4CC=C5C[C@@H](OC(C)=O)CC[C@]5(C)[C@H]4CC[C@]3(C)[C@H]2OC(C)=O)cc1OC | 6.77 | > 50 | > 50 | – | 31.8 | > 50 | – | 19.6 | 20.7 | – | – | 9.86 | 0.361 | 19.6 | 18.1 | – | 14.1 | 17.4 | 8.96
17 | C/C(=N\NS(=O)(=O)c1ccc(C)cc1)c1ccc[n+]([O-])n1 | 82.5 | – | – | – | – | > 100 | > 100 | > 100 | – | > 100 | – | – | – | – | – | – | – | – | –
18 | CCOC(=O)/C=C1\Nc2ccccc2C(c2ccccc2)=NC1OC(C)=O (configuration not stated) | > 100 | > 100 | > 100 | > 100 | – | > 100 | > 100 | > 100 | – | > 100 | – | – | – | – | – | – | – | – | –
19 | CCC1OCCN1C(C)C (configuration not stated) | > 100 | > 100 | > 100 | > 100 | – | > 100 | > 100 | > 100 | > 100 | > 100 | – | – | – | – | – | – | – | – | –
20 | O=C(OCc1ccccc1CN1CCOCC1)c1ccc(Br)cc1 | – | > 100 | > 100 | 60.4 | > 100 | > 100 | > 100 | > 100 | > 100 | – | – | – | – | – | – | – | – | – | –
21 | Clc1ccc2c(Cl)ncnc2c1 | > 100 | > 100 | > 100 | > 100 | – | > 100 | > 100 | > 100 | – | > 100 | – | – | – | – | – | – | – | – | –
22 | CC1OC(=O)N(CCCC=C2SCCCS2)C1=O (configuration not stated) | > 100 | > 100 | > 100 | > 100 | – | > 100 | > 100 | > 100 | > 100 | – | – | – | – | – | – | – | – | – | –
